{
  "source": "paper PMC6277434",
  "about": "“Discovery of a potent HMG-CoA reductase degrader that eliminates statin-induced reductase accumulation and lowers cholesterol” (Nature Communications, 2018)",
  "key": {"HMGCR": {"target": "T1, HMGCR (Cricetulus griseus, UniProt P00347)", "T1 construct": "endogenous in cells; host or cells: CHO-7, CHG, SRD-13A, SRD-15", "T1 sequence (P00347 1-887)": "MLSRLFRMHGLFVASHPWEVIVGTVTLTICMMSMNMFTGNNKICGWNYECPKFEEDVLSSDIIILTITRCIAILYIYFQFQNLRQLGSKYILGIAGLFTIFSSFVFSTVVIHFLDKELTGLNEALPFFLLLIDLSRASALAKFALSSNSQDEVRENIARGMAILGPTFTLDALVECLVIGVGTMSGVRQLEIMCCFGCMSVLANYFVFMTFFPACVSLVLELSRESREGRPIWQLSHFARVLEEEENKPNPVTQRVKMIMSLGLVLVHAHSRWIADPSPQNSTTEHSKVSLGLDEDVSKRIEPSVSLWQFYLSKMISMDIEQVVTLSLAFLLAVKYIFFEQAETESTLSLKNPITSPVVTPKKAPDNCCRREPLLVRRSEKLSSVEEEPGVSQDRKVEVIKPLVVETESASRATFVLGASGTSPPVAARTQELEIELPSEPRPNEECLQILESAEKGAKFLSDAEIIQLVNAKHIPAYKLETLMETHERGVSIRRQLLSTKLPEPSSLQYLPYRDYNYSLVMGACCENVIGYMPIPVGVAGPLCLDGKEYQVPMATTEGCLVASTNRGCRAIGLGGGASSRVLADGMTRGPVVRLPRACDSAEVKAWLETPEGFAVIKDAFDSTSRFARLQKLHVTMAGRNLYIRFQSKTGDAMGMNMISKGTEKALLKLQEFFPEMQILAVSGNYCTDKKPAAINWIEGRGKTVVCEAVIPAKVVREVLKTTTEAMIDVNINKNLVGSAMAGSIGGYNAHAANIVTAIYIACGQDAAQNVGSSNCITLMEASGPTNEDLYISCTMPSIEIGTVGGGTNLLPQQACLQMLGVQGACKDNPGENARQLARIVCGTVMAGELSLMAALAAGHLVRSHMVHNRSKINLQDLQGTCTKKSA", "assay": "Immunoblotting of endogenous HMGCR protein in CHO-7 (or CHG) cells", "format": "cell-based, Chinese hamster", "details": "for endogenous HMGCR protein (immunoblot), mean: DMSO = 100; for HMGCR protein fold change: untreated = 1", "procedure": "CHO-7 (Chinese hamster ovary cell, a clone of CHO-K1 cell line selected for growth in LPDS) and Huh7 (a human hepatocellular carcinoma cell line), SRD-13A (a Scap-deficient CHO-7 cell line) and SRD-15 (an Insig-1 and Insig-2-deficient CHO-7 cell line) were generous gifts from Russell Debose-Boyd at UT Southwestern Medical Center, USA. All cells were grown in a monolayer at 37 °C with 5% CO2. Huh7 cells were maintained in medium A supplemented with 10% FBS. CHO-7 and SRD-15 cells were maintained in medium B supplemented with 5% FBS. SRD-13A cells were maintained in medium B with 5% FBS, 5 μg ml^−1 cholesterol, 1 mM sodium mevalonate, 10 μM sodium oleate. No cell lines used in this study were found in the database of commonly misidentified cell lines that is maintained by ICLAC and NCBI Biosample. The cell lines have not been authenticated recently. No test for mycoplasma contamination was performed.\nCells were harvested and homogenized in the RIPA buffer (50 mM Tris-HCl, pH 8.0, 150 mM NaCl, 2 mM MgCl2, 1.5% NP-40, 0.1% SDS, and 0.5% sodium deoxycholate) supplemented with protease cocktail inhibitor, 10 μM MG-132, 10 μg ml^−1 leupeptin and 1 mM phenylmethylsulfonyl fluoride. The protein concentrations of lysates were determined using BCA method (Beyotime). Samples were mixed with the membrane protein solubilization buffer (62.5 mM Tris-HCl, pH 6.8, 15% SDS, 8 M urea, 10% glycerol, and 100 mM DTT) plus the 4× loading buffer (150 mM Tris-HCl, pH 6.8, 12% SDS, 30% glycerol, 6% 2-mercaptoethanol, and 0.02% bromophenol blue) and incubated for 30 min at 37 °C. Proteins were resolved by SDS-PAGE and transferred to nitrocellulose membranes (GE Healthcare). Immnoblots were blocked with 5% non-fat milk in TBS containing 0.075% Tween-20 (TBST) and probed with indicated antibodies overnight at 4 °C. After washing in TBST for five times, blots were incubated with HRP-conjugated secondary antibodies for 2 h at room temperature. Immunoreactivity was developed with Clarity Western ECL chemiluminescent substrates (170–5061, Bio-Rad). Western blot images were captured by Amersham Imager 600 (GE Healthcare), and integrated optical intensities of each band were quantified by Image-Pro Plus 6 software (Media Cybernetics). Uncropped blots are shown in Supplementary Figs. 9–13."}, "[1]": {"assay": "Body weight and food intake of treated mice", "format": "in vivo"}, "[2]": {"details": "C57BL/6J mice, MFMC diet, 6 weeks"}},
  "data": [
    {"compound": "C=CCC(O)(CC=C)CCCC(C)C1CCC2C3C(O)C=C4C(C)(C)C(O)CCC4(C)C3CCC12C", "note": "(stereo not shown) [Cmpd 81]", "values": [
      {"measurement": "endogenous HMGCR protein (immunoblot), mean", "setting": "HMGCR; CHO-7, 0.01 uM, 16 h", "value": 96.5896},
      {"measurement": "endogenous HMGCR protein (immunoblot), mean", "setting": "HMGCR; CHO-7, 0.03 uM, 16 h", "value": 105.12},
      {"measurement": "endogenous HMGCR protein (immunoblot), mean", "setting": "HMGCR; CHO-7, 0.1 uM, 16 h", "value": 84.2505},
      {"measurement": "endogenous HMGCR protein (immunoblot), mean", "setting": "HMGCR; CHO-7, 0.3 uM, 16 h", "value": 66.4121},
      {"measurement": "endogenous HMGCR protein (immunoblot), mean", "setting": "HMGCR; CHO-7, 1 uM, 16 h", "value": 9.931},
      {"measurement": "endogenous HMGCR protein (immunoblot), mean", "setting": "HMGCR; CHO-7, 3 uM, 16 h", "value": 3.826},
      {"measurement": "HMGCR degradation induced by Cmpd 81 on addition of proteasome inhibitor MG-132", "setting": "HMGCR; CHO-7, 10 μM MG-132, 5 h", "value": "completely blocked"},
      {"measurement": "endogenous HMGCR protein (immunoblot), mean", "setting": "HMGCR; CHO-7, 10 uM, 16 h", "value": 1.121},
      {"measurement": "endogenous HMGCR protein (immunoblot), mean", "setting": "HMGCR; CHO-7, 20 uM, 16 h", "value": 1.6114},
      {"measurement": "HMGCR protein fold change", "setting": "HMGCR; CHO-7, Cmpd 81 1 μM with lovastatin 1 μM", "value": 5.141},
      {"measurement": "HMGCR protein fold change", "setting": "HMGCR; CHO-7, Cmpd 81 1 μM, without lovastatin", "value": 0.3231},
      {"measurement": "HMGCR protein fold change", "setting": "HMGCR; CHO-7, Cmpd 81 3 μM with lovastatin 1 μM", "value": 1.706},
      {"measurement": "HMGCR protein fold change", "setting": "HMGCR; CHO-7, Cmpd 81 3 μM, without lovastatin", "value": 0.1204},
      {"measurement": "HMGCR protein fold change", "setting": "HMGCR; CHO-7, Cmpd 81 10 μM with lovastatin 1 μM", "value": 0.399},
      {"measurement": "reduction in HMGCR", "setting": "HMGCR; CHO-7 cells, 1 μM, 16 h", "value": "more than 80%"},
      {"measurement": "EC50", "setting": "HMGCR; CHO-7 cells, 16 h, read-out: EC50 to decrease endogenous HMGCR (dose–response immunoblotting)", "value": 390, "unit": "nM"},
      {"measurement": "HMGCR protein induced by simvastatin, pravastatin, fluvastatin, atorvastatin and rosuvastatin", "setting": "HMGCR; cultured cells", "value": "similarly reduced"},
      {"measurement": "body weight and food intake", "setting": "[1]; [2]", "value": "remained comparable"},
      {"measurement": "body weight and food intake", "setting": "[1]; Ldlr−/− mice, WD, up to 20 weeks", "value": "did not affect"}
    ]},
    {"compound": "CC[C@H](C)C(=O)O[C@H]1C[C@@H](C)C=C2C=C[C@H](C)[C@H](CC[C@@H]3C[C@@H](O)CC(=O)O3)[C@H]21", "note": "[Lovastatin, lovastatin]", "values": [
      {"measurement": "HMGCR protein level, mean", "setting": "HMGCR; CHO-7, lovastatin 0.001 uM, 16 h, DMSO = 1", "value": 1.706},
      {"measurement": "HMGCR protein level, mean", "setting": "HMGCR; CHO-7, lovastatin 0.003 uM, 16 h, DMSO = 1", "value": 2.872},
      {"measurement": "HMGCR protein level, mean", "setting": "HMGCR; CHO-7, lovastatin 0.01 uM, 16 h, DMSO = 1", "value": 6.395},
      {"measurement": "HMGCR protein level, mean", "setting": "HMGCR; CHO-7, lovastatin 0.03 uM, 16 h, DMSO = 1", "value": 10.2955},
      {"measurement": "HMGCR protein level, mean", "setting": "HMGCR; CHO-7, lovastatin 0.1 uM, 16 h, DMSO = 1", "value": 11.6269},
      {"measurement": "HMGCR protein level, mean", "setting": "HMGCR; CHO-7, lovastatin 0.3 uM, 16 h, DMSO = 1", "value": 13.3691},
      {"measurement": "HMGCR protein fold change", "setting": "HMGCR; CHO-7, lovastatin 1 μM alone", "value": 16.2295},
      {"measurement": "HMGCR protein level, mean", "setting": "HMGCR; CHO-7, lovastatin 1 uM, 16 h, DMSO = 1", "value": 14.123},
      {"measurement": "HMGCR protein level, mean", "setting": "HMGCR; CHO-7, lovastatin 3 uM, 16 h, DMSO = 1", "value": 14.7817},
      {"measurement": "HMGCR protein level, mean", "setting": "HMGCR; CHO-7, lovastatin 10 uM, 16 h, DMSO = 1", "value": 14.2587},
      {"measurement": "increase of HMGCR protein (maximum increment)", "setting": "HMGCR; CHO-7 cells, statin 16 h, DMSO = 1", "value": "~ 15 fold"},
      {"measurement": "body weight and food intake", "setting": "[1]; [2]", "value": "remained comparable"}
    ]}
  ]
}
